{"source": "patent US20110053163A1", "about": "“Biomarker” (BIOVATOR TECHNOLOGIES AB, priority 2007, published 2011)", "type_in_all_cases": "cell-based, human", "key": {"MonoMac-6 cells": {"tested_on": "MonoMac-6 cells", "assay": "Cytokine Profile Assay (CPA): neopterin production by stimulated MonoMac-6 cells, ELISA", "conditions": "for neopterin release (in words): chemicals, in the presence or absence of IFN-γ", "excerpt": "(§1) The instructions of the manufacturers were followed. All these tests are enzyme immunoassays (EIA:s). The principle is that microtiter plate wells are labelled with a cytokine specific capture antibody. If cytokine is present in the samples added to the wells it will be captured to the bottom of the well. […] The reaction is thereafter measured as colour developed after addition of a substrate for the enzyme. The values for the test wells are compared with a standard curve obtained by adding a series of known amounts of cytokine. The values obtained for control wells with no substance added are used as background values for cytokine levels.\nThe myelomonocytic cell line MonoMac-6 (obtained from DSMZ, accession number ACC 124, Prof. H. W. L. Ziegler-Heitbrock, Inst. For Immunology, University of Munich, Munich) was cultured in cell culture flasks (Corning). Cells were cultured in RPMI 1640 medium (Gibco BRL), containing 20 mM HEPES and L-glutamine and supplemented with 10% heat-inactivated foetal bovine serum (Gibco BRL), penicillin (100 U/mL; Sigma-Aldrich), streptomycin (100 μg/mL; Sigma-Aldrich), sodium pyruvate (1.0 mM;Gibco BRL), human insulin (9 μg/mL; Gibco BRL) and non-essential amino acids (Gibco BRL) or cultured in Panserin 411 (Pan Biotech) supplemented with penicillin (100 U/mL), streptomycin (100 μg/mL).\nThe cells were split approximately 1:3 the day before stimulation. The stimulation procedure was performed in three steps. The first step was pre-dilution of test substances, to double the final concentration, in cell culture medium. Furthermore, Interferon-γ (IFN-γ) (100 U, PreproTech) was added in the cell culture media for 24 or 48 hours during stimulation of cells with test substances. The number of cells was then determined by trypan blue exclusion and the cells were diluted to twice the final test concentration (2×10^6 cells/mL) if not otherwise indicated and 100 μl of cell suspension was added per well in 96 well tissue culture plates (Corning). Finally, a 100 μl of pre-diluted test substance (triplicate cultures) was added to the tissue culture plates. […] The stimulated cells were cultured at 37° C., 5% CO2, for 24 or 48 hours. The cell suspension was transferred to new cell culture plates and stored at −20° C. until analyzed. Thereafter the cell suspension was analyzed for presence of neopterin and IL-10 by ELISA (IBL-Hamburg) following the manufacturers instructions."}, "THP-1 cells": {"tested_on": "THP-1 cells", "assay": "CPA: neopterin production by stimulated THP-1 cells", "conditions": "RPMI+10% FCS, 24 hrs, different concentrations", "excerpt": "as §1\n(§2) The cells were split approximately 1:3 the day before stimulation. The stimulation procedure was performed in three steps. The first step was pre-dilution of test substances, to double the final concentration, in cell culture medium. […] The number of cells was then determined by trypan blue exclusion and the cells were diluted to twice the final test concentration (2×10^6 cells/mL) if not otherwise indicated and 100 μl of cell suspension was added per well in 96 well tissue culture plates (Corning). […] The cell suspension was transferred to new cell culture plates and stored at −20° C. until analyzed. Thereafter the cell suspension was analyzed for presence of neopterin and IL-10 by ELISA (IBL-Hamburg) following the manufacturers instructions."}, "MM6-cells": {"tested_on": "MM6-cells", "assay": "CPA: IL-10 levels of stimulated MM6 cells, ELISA", "conditions": "25-200 μg/ml; 48 hours; with IFN-γ 100 U/ml", "excerpt": "as §1, with “levels. […]” for “levels.”\nas §2, with “stimulation.” for “stimulation. The stimulation procedure was performed in three steps. The first step was pre-dilution of test substances, to double the final concentration, in cell culture medium.”"}, "[1]": {"conditions": "proteins, RPMI+10% FCS, 24 hrs, with IFN-γ 100 U/ml, over the tested concentrations"}}, "note": "Where two headings read alike, the source gives them in different places."}
{"compound": "O=[N+]([O-])c1ccc(Cl)c([N+](=O)[O-])c1", "note": "[DNCB, 2,4 Dinitrocholorobenzene, reference compound]", "values": [{"measurement": "neopterin release (in words)", "setting": "MonoMac-6 cells; RPMI+10% FCS, 24 hrs", "result": "none of the chemicals tested induced any neopterin release above background levels"}]}
{"compound": "[Cl][Pt-2]([Cl])([Cl])([Cl])([Cl])[Cl].[NH4+].[NH4+]", "note": "[HCPt, Ammonium hexachloroplatinate, reference compound]", "values": [{"measurement": "neopterin release (in words)", "setting": "MonoMac-6 cells; RPMI+10% FCS, 24 hrs", "result": "none of the chemicals tested induced any neopterin release above background levels"}]}
{"compound": "CCOC(=O)c1ccc(N)cc1", "note": "[benzocaine, Benzocaine, reference compound]", "values": [{"measurement": "neopterin response (in words)", "setting": "MonoMac-6 cells; chemical at 30 μg/ml, with IFN-γ, RPMI+10% FCS, 24 hrs", "result": "induced a neopterin response above background levels"}]}
{"compound": "Oc1ccccc1", "note": "[phenol, reference compound]", "values": [{"measurement": "neopterin response (in words)", "setting": "MonoMac-6 cells", "result": "induced a neopterin response above background levels"}]}
{"compound": "Lipopolysaccharide [LPS]", "values": [{"measurement": "neopterin response (in words)", "setting": "THP-1 cells", "result": "Dose response was seen"}]}
{"compound": "Soy lectin: Lectin: glycine max (soy been) (Medicago), low potential of being allergenic", "values": [{"measurement": "neopterin response (in words)", "setting": "MonoMac-6 cells; 6.6 μg/ml, RPMI+10% FCS, 24 hrs, with IFN-γ", "result": "did not induce any neopterin response above the levels of control cells"}, {"measurement": "neopterin response (in words)", "setting": "MonoMac-6 cells; 180 μg/ml, RPMI+10% FCS, 24 hrs, with IFN-γ", "result": "comparable to the cellular response towards Ara h 2 at 6.6 μg/ml"}, {"measurement": "neopterin response (in words)", "setting": "MonoMac-6 cells; [1]", "result": "Weak cellular neopterin responce"}, {"measurement": "neopterin response (in words)", "setting": "MonoMac-6 cells; proteins, RPMI+10% FCS, 24 hrs, with IFN-γ 100 U/ml, over the tested concentrations, listed as soy lectin", "result": "did not induce neopterin above background levels"}]}
{"compound": "gelatin", "values": [{"measurement": "IL-10 levels (in words)", "setting": "MM6-cells", "result": "did not induce IL-10 above background levels"}, {"measurement": "neopterin response (in words)", "setting": "MonoMac-6 cells; [1]", "result": "did not induce any neopterin production above the background levels"}]}
